Reference: the supplement of paper PMC8612539
In brackets after ≈: the same amount, converted by molar mass.

Tested on: Escherichia coli
Assay: minimum inhibitory concentration (MIC)
Method: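 Broth microdilution MIC (Sensititre BOPO7F bovine plate, CLSI methods) of 19 antimicrobials against field isolates of P. multocida, M. haemolytica, H. somni (deep nasopharyngeal swabs) and E. coli, Enterococcus spp. (rectal swabs) from weaned dairy heifers. Incubation 16-24 h at 35 C. MIC is the lowest concentration preventing visible growth. Values with <= or > lie at the tested range limits. Trimethoprim-sulfamethoxazole is given as the trimethoprim component of a 1:19 mixture.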

CC[C@H]1OC(=O)C[C@@H](O)[C@H](C)[C@@H](O[C@@H]2O[C@H](C)[C@@H](O[C@H]3C[C@@](C)(O)[C@@H](O)[C@H](C)O3)[C@H](N(C)C)[C@H]2O)[C@@H](CC=O)C[C@@H](C)C(=O)/C=C/C(C)=C/[C@@H]1CO[C@@H]1O[C@H](C)[C@@H](O)[C@@H](OC)[C@H]1OC [Tylosin]
Conditions	minimum inhibitory concentration [µg/mL]
isolate (source animal id): 8	> 32
isolate (source animal id): 9	> 32
isolate (source animal id): 10	> 32
isolate (source animal id): 11	> 32
isolate (source animal id): 12	> 32
isolate (source animal id): 13	> 32
isolate (source animal id): 14	> 32
isolate (source animal id): 15	> 32
isolate (source animal id): 16	> 32
isolate (source animal id): 98	> 32
isolate (source animal id): 99	> 32
isolate (source animal id): 100	> 32
isolate (source animal id): 101	> 32
isolate (source animal id): 102	> 32
isolate (source animal id): 103	> 32
isolate (source animal id): 104	> 32
isolate (source animal id): 105	> 32
isolate (source animal id): 106	> 32
isolate (source animal id): 107	> 32
isolate (source animal id): 108	> 32
isolate (source animal id): 109	> 32
isolate (source animal id): 110	> 32
isolate (source animal id): 111	> 32
isolate (source animal id): 112	> 32
isolate (source animal id): 113	> 32
isolate (source animal id): 114	> 32
isolate (source animal id): 115	> 32
isolate (source animal id): 116	> 32
isolate (source animal id): 117	> 32
isolate (source animal id): 118	> 32
isolate (source animal id): 119	> 32
isolate (source animal id): 120	> 32
isolate (source animal id): 121	> 32
isolate (source animal id): 122	> 32
isolate (source animal id): 123	> 32
isolate (source animal id): 124	> 32
isolate (source animal id): 125	> 32
isolate (source animal id): 126	> 32
isolate (source animal id): 127	> 32
isolate (source animal id): 128	> 32
isolate (source animal id): 129	> 32
isolate (source animal id): 130	> 32
isolate (source animal id): 131	> 32
isolate (source animal id): 132	> 32
isolate (source animal id): 133	> 32
isolate (source animal id): 134	> 32
isolate (source animal id): 135	> 32
isolate (source animal id): 136	> 32
isolate (source animal id): 137	> 32
isolate (source animal id): 138	> 32
isolate (source animal id): 139	> 32
isolate (source animal id): 140	> 32
isolate (source animal id): 141	> 32
isolate (source animal id): 142	> 32
isolate (source animal id): 143	> 32
isolate (source animal id): 144	> 32
isolate (source animal id): 145	> 32
isolate (source animal id): 146	> 32
isolate (source animal id): 147	> 32
isolate (source animal id): 148	> 32
isolate (source animal id): 149	> 32
isolate (source animal id): 150	> 32
isolate (source animal id): 151	> 32
isolate (source animal id): 152	> 32
isolate (source animal id): 153	> 32
isolate (source animal id): 154	> 32
isolate (source animal id): 155	> 32
isolate (source animal id): 156	> 32
isolate (source animal id): 157	> 32
isolate (source animal id): 158	> 32
isolate (source animal id): 159	> 32
isolate (source animal id): 160	> 32
isolate (source animal id): 161	> 32
isolate (source animal id): 162	> 32
isolate (source animal id): 163	> 32
isolate (source animal id): 164	> 32
isolate (source animal id): 165	> 32
isolate (source animal id): 166	> 32
isolate (source animal id): 167	> 32
isolate (source animal id): 168	> 32
isolate (source animal id): 169	> 32
isolate (source animal id): 170	> 32
isolate (source animal id): 171	> 32
isolate (source animal id): 172	> 32
isolate (source animal id): 173	> 32
isolate (source animal id): 174	> 32
isolate (source animal id): 175	> 32
isolate (source animal id): 176	> 32
isolate (source animal id): 177	> 32
isolate (source animal id): 178	> 32
isolate (source animal id): 179	> 32
isolate (source animal id): 180	> 32
isolate (source animal id): 181	> 32
isolate (source animal id): 182	> 32
isolate (source animal id): 183	> 32
isolate (source animal id): 184	> 32
isolate (source animal id): 185	> 32
isolate (source animal id): 186	> 32
isolate (source animal id): 187	> 32
isolate (source animal id): 188	> 32

CC[C@H]1OC(=O)C[C@@H](O)[C@H](C)[C@@H](O[C@@H]2O[C@H](C)[C@@H](O)[C@H](N(C)C)[C@H]2O)[C@@H](CCN2C[C@H](C)C[C@H](C)C2)C[C@@H](C)C(=O)/C=C/C(C)=C/[C@@H]1CO[C@@H]1O[C@H](C)[C@@H](O)[C@@H](OC)[C@H]1OC [Tilmicosin]
Conditions	minimum inhibitory concentration [µg/mL]
isolate (source animal id): 8	> 16
isolate (source animal id): 9	> 16
isolate (source animal id): 10	> 16
isolate (source animal id): 11	> 16
isolate (source animal id): 12	> 16
isolate (source animal id): 13	> 16
isolate (source animal id): 14	> 16
isolate (source animal id): 15	> 16
isolate (source animal id): 16	> 16
isolate (source animal id): 98	> 16
isolate (source animal id): 99	> 16
isolate (source animal id): 100	> 16
isolate (source animal id): 101	> 16
isolate (source animal id): 102	> 16
isolate (source animal id): 103	> 16
isolate (source animal id): 104	> 16
isolate (source animal id): 105	> 16
isolate (source animal id): 106	> 16
isolate (source animal id): 107	> 16
isolate (source animal id): 108	> 16
isolate (source animal id): 109	> 16
isolate (source animal id): 110	> 16
isolate (source animal id): 111	> 16
isolate (source animal id): 112	> 16
isolate (source animal id): 113	> 16
isolate (source animal id): 114	> 16
isolate (source animal id): 115	> 16
isolate (source animal id): 116	> 16
isolate (source animal id): 117	> 16
isolate (source animal id): 118	> 16
isolate (source animal id): 119	> 16
isolate (source animal id): 120	> 16
isolate (source animal id): 121	> 16
isolate (source animal id): 122	> 16
isolate (source animal id): 123	> 16
isolate (source animal id): 124	> 16
isolate (source animal id): 125	16 (≈ 18.4 µM)
isolate (source animal id): 126	> 16
isolate (source animal id): 127	> 16
isolate (source animal id): 128	> 16
isolate (source animal id): 129	> 16
isolate (source animal id): 130	> 16
isolate (source animal id): 131	> 16
isolate (source animal id): 132	> 16
isolate (source animal id): 133	> 16
isolate (source animal id): 134	> 16
isolate (source animal id): 135	> 16
isolate (source animal id): 136	> 16
isolate (source animal id): 137	> 16
isolate (source animal id): 138	> 16
isolate (source animal id): 139	> 16
isolate (source animal id): 140	> 16
isolate (source animal id): 141	> 16
isolate (source animal id): 142	> 16
isolate (source animal id): 143	> 16
isolate (source animal id): 144	> 16
isolate (source animal id): 145	> 16
isolate (source animal id): 146	> 16
isolate (source animal id): 147	> 16
isolate (source animal id): 148	> 16
isolate (source animal id): 149	> 16
isolate (source animal id): 150	> 16
isolate (source animal id): 151	> 16
isolate (source animal id): 152	> 16
isolate (source animal id): 153	> 16
isolate (source animal id): 154	> 16
isolate (source animal id): 155	> 16
isolate (source animal id): 156	> 16
isolate (source animal id): 157	> 16
isolate (source animal id): 158	> 16
isolate (source animal id): 159	> 16
isolate (source animal id): 160	> 16
isolate (source animal id): 161	> 16
isolate (source animal id): 162	> 16
isolate (source animal id): 163	> 16
isolate (source animal id): 164	> 16
isolate (source animal id): 165	> 16
isolate (source animal id): 166	> 16
isolate (source animal id): 167	> 16
isolate (source animal id): 168	> 16
isolate (source animal id): 169	> 16
isolate (source animal id): 170	> 16
isolate (source animal id): 171	> 16
isolate (source animal id): 172	> 16
isolate (source animal id): 173	> 16
isolate (source animal id): 174	> 16
isolate (source animal id): 175	> 16
isolate (source animal id): 176	> 16
isolate (source animal id): 177	> 16
isolate (source animal id): 178	> 16
isolate (source animal id): 179	> 16
isolate (source animal id): 180	> 16
isolate (source animal id): 181	> 16
isolate (source animal id): 182	> 16
isolate (source animal id): 183	> 16
isolate (source animal id): 184	> 16
isolate (source animal id): 185	> 16
isolate (source animal id): 186	> 16
isolate (source animal id): 187	> 16
isolate (source animal id): 188	> 16
